The first experiment has as its target myeloperoxidase (MPO) (Homo sapiens (Human), UniProt P05164). Kind of experiment: MPO chlorination assay (APF). It is filed as biochemical.
Settings: not given
Here is the method:
MPO chlorination activity was measured in 100 mM KPi (pH 7.4) by utilizing the non-fluorescent reagent Aminophenyl fluorescein (APF, Invitrogen catalog #A36003). APF is cleaved by (—OCl) to yield the fluorescent compound fluorescein. Reactions were carried out in 50 μL total volume by adding a 25 μL mixture of 200 pM myeloperoxidase and 120 mM NaCl to 100 nL inhibitor in 100% DMSO in a 384 well, non-binding surface clear bottom plate (CORNING® #3655). Enzyme, inhibitor, and chloride were preincubated for ten minutes at rt.
After the ten minute preincubation, 25 μL of an APF mixture containing […], 120 mM NaCl and 10 μM H2O2 was added to the plate using the internal dispensing system of a Hammatsu FDSS 6000. Kinetic determinations were carried out immediately on the FDSS 6000 (3 minute kinetic read, 1 read every second, ex: 485 nm, em: 535 nm). IC50 values for inhibitors were calculated by taking the slope of the linear portion of the kinetic measurement (20 seconds to ˜80-120 secs). […]
[formula] where A=minimal Y value (activity level of inhibited sample), B=maximal Y value (activity level of uninhibited sample), C=Log IC50, D=Hill Slope, x=concentration of inhibitor. EPX Bromination Assay
myeloperoxidase (MPO), sequence (P05164 49-745): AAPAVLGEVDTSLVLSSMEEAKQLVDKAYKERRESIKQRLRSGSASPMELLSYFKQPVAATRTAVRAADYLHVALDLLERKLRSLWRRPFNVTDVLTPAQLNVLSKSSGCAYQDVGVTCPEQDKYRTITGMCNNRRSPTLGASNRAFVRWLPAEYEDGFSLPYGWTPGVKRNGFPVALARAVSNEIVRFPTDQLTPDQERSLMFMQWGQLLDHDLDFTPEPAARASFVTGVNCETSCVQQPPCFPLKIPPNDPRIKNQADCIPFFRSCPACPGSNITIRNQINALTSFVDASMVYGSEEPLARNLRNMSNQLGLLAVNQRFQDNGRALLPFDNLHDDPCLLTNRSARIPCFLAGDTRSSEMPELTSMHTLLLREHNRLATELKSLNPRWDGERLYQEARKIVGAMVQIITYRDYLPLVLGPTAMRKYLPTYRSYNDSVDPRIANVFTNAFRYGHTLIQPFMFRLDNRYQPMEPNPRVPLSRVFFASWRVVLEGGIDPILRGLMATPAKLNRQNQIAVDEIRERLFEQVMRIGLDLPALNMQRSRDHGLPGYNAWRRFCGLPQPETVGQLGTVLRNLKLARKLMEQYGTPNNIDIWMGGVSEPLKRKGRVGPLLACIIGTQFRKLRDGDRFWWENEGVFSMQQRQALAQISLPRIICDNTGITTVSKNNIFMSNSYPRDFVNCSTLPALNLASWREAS
Compound `Nc1cc(SCc2nn(-c3ccccc3)nc2C(F)F)c2nn[nH]c2n1` [Example 153, 7-(((5-(difluoromethyl)-2-phenyl-2H-1,2,3-triazol-4-yl)methyl)thio)-3H-[1,2,3]triazolo [4,5-b]pyridin-5-amine] returned a concentration for half-maximal inhibition (IC50) of 60 to 200 nM.

The same experiment, now with this note: MPO chlorination assay, ranges given; read-out: MPO chlorination assay IC50.
Consider `CN(C)Cc1ccc(F)c(CSc2cc(N)nc3[nH]nnc23)c1` [Example 99, 7-((5-((dimethylamino)methyl)-2-fluorobenzyl)thio)-3H-[1,2,3]triazolo[4,5-b]pyridin-5-amine], for which the IC50 is 60 to 200 nM. Still for that read-out and setting: then `Cn1nc(CSc2cc(N)nc3[nH]nnc23)cc1-c1ccccc1` [Example 103, 7-(((1-methyl-5-phenyl-1H-pyrazol-3-yl)methyl)thio)-3H-[1,2,3]triazolo[4,5-b] pyridin-5-amine], with 60 to 200 nM; and `CS(=O)(=O)c1cc(Cl)ccc1CSc1cc(N)nc2[nH]nnc12` [Example 18, 7-((4-chloro-2-(methylsulfonyl)benzyl)thio)-3H-[1,2,3]triazolo[4,5-b]pyridin-5-amine], with not above 60 nM. Still for that read-out and setting: under `Nc1cc(SCc2cn(-c3cnc(C(=O)N4CCC4)cn3)nc2C(F)F)c2nn[nH]c2n1` [Example 146] stands 200 to 1000 nM. With `Nc1cc(SCc2cccc3cccnc23)c2nn[nH]c2n1` [Example 125, 7-((quinolin-8-ylmethyl)thio)-3H-[1,2,3] triazolo[4,5-b]pyridin-5-amine], the IC50 is not above 60 nM. For the compound `N#Cc1cc(F)ccc1CSc1cc(N)nc2[nH]nnc12` [Example 56, 2-(((5-amino-3H-[1,2,3]triazolo[4,5-b]pyridin-7-yl)thio)methyl)-5-fluorobenzonitrile], the IC50 is not above 60 nM. In the case of `COc1ccc(CSc2cc(N)nc3[nH]nnc23)cc1` [Example 9, 7-((4-methoxybenzyl)thio)-3H-[1,2,3]triazolo [4,5-b]pyridin-5-amine], the IC50 is not above 60 nM.

Consider `N#Cc1cccc(F)c1CSc1nc(N)nc2[nH]nnc12` [Example 154, 2-(((5-Amino-3H-[1,2,3]triazolo[4,5-d]pyrimidin-7-yl)thio)methyl)-3-fluorobenzonitrile], for which the IC50 fell in the range of 60 to 200 nM.

As for `Nc1cc(SCc2c(F)cc(Cl)cc2F)c2nn[nH]c2n1` [Example 23, 7-((4-chloro-2,6-difluorobenzyl)thio)-3H-[1,2,3]triazolo[4,5-b]pyridin-5-amine], the half-maximal inhibitory concentration (IC50) is not above 60 nM.

On to `Nc1cc(SCc2cn(-c3ccnnc3)nc2C(F)F)c2nn[nH]c2n1` [Example 143], for which the half-maximal inhibitory concentration (IC50) fell in the range of 200 to 1000 nM.

For `Cc1nn(-c2ccccc2)c(Cl)c1CSc1nc(N)nc2[nH]nnc12` [Example 156, 7-(((5-chloro-3-methyl-1-phenyl-1H-pyrazol-4-yl)methyl)thio)-3H-[1,2,3] triazolo[4,5-b]pyrimidin-5-amine], the concentration for half-maximal inhibition (IC50) was 60 to 200 nM. As for `Nc1cc(SCc2ccccc2-c2ccccn2)c2nn[nH]c2n1` [Example 92, 7-((2-(pyridin-2-yl)benzyl)thio)-3H-[1,2,3]triazolo[4,5-b]pyridin-5-amine], the IC50 lay in the range of 60 to 200 nM. Same read-out and setting: under `Nc1cc(SCc2cn(-c3ccncc3)nc2C(F)F)c2nn[nH]c2n1` [Example 142] stands not above 60 nM; under `N#Cc1ccc(OC(F)F)cc1CSc1cc(N)nc2[nH]nnc12` [Example 109], not above 60 nM; under `Nc1cc(SCc2ccccc2)c2nn[nH]c2n1` [Example 1, 7-(Benzylthio)-3H-[1,2,3]triazolo[4,5-b]pyridin-5-amine], not above 60 nM. As to `CCOC(=O)C(Sc1cc(N)nc2[nH]nnc12)c1ccccc1` (stereo not drawn) [Example 106, ethyl 2-((5-amino-3H-[1,2,3]triazolo[4,5-b]pyridin-7-yl)thio)-2-phenylacetate], the half-maximal inhibitory concentration (IC50) fell in the range of 60 to 200 nM. Same read-out and setting: under `Cn1nc(C(F)(F)F)c(CSc2cc(N)nc3[nH]nnc23)c1Cl` [Example 78, 7-(((5-chloro-1-methyl-3-(trifluoromethyl)-1H-pyrazol-4-yl)methyl)thio)-3H-[1,2,3]triazolo[4,5-b] pyridin-5-amine] stands not above 60 nM; under `N#Cc1c(Cl)cccc1CSc1cc(N)nc2[nH]nnc12` [Example 75, 2-(((5-amino-3H-[1,2,3]triazolo[4,5-b]pyridin-7-yl)thio)methyl)-6-chlorobenzonitrile], 60 to 200 nM; under `CC(Sc1cc(N)nc2[nH]nnc12)c1ccccc1S(C)(=O)=O` (stereo not drawn) [Example 54, 7-((1-(2-(methylsulfonyl)phenyl)ethyl)thio)-3H-[1,2,3]triazolo[4,5-b]pyridin-5-amine], 60 to 200 nM. Take `Nc1cc(SCc2c(F)cccc2F)c2nn[nH]c2n1` [Example 10, 7-((2,6-Difluorobenzyl)thio)-3H-[1,2,3]triazolo[4,5-b]pyridin-5-amine]: the IC50 was not above 60 nM. The same measure, in the same setting: then `CC1(NC(=O)c2ccc(F)c(CSc3cc(N)nc4[nH]nnc34)c2)CC1` [Example 55, 3-(((5-amino-3H-[1,2,3]triazolo[4,5-b]pyridin-7-yl)thio)methyl)-4-fluoro-N-(1-methylcyclopropyl) benzamide], with 200 to 1000 nM; and `Nc1cc(SCc2ccccc2OC(F)(F)F)c2nn[nH]c2n1` [Example 29, 7-((2-(trifluoromethoxy)benzyl)thio)-3H-[1,2,3] triazolo[4,5-b]pyridin-5-amine], with not above 60 nM; and `N#Cc1ccc(-c2ccncc2)c(CSc2cc(N)nc3[nH]nnc23)c1` [Example 130, 3-(((5-Amino-3H-[1,2,3]triazolo[4,5-b]pyridin-7-yl)thio)methyl)-4-(pyridin-4-yl)benzonitrile], with not above 60 nM. On the same count and under the same terms, under `COC(=O)c1ccc(F)c(CSc2cc(N)nc3[nH]nnc23)c1` [Example 52, methyl 3-(((5-amino-3H-[1,2,3]triazolo[4,5-b]pyridin-7-yl)thio)methyl)-4-fluorobenzoate] stands 60 to 200 nM; under `CS(=O)(=O)c1cc(Br)cc(F)c1CSc1cc(N)nc2[nH]nnc12` [Example 42, 7-((4-bromo-2-fluoro-6-(methylsulfonyl)benzyl)thio)-3H-[1,2,3]triazolo[4,5-b]pyridin-5-amine], not above 60 nM; under `Nc1cc(SCc2c(F)ccc(Br)c2F)c2nn[nH]c2n1` [Example 43, 7-((3-bromo-2,6-difluorobenzyl)thio)-3H-[1,2,3]triazolo[4,5-b]pyridin-5-amine], not above 60 nM.

For the compound `CCn1nc(C(F)(F)F)cc1CSc1cc(N)nc2[nH]nnc12` [Example 36, 7-(((1-ethyl-3-(trifluoromethyl)-1H-pyrazol-5-yl)methyl)thio)-3H-[1,2,3]triazolo[4,5-b] pyridin-5-amine], the IC50 fell in the range of 200 to 1000 nM. Same read-out and setting: under `N#Cc1ccc(F)cc1CSc1nc(N)nc2[nH]nnc12` [Example 157, 2-(((5-amino-3H-[1,2,3]triazolo[4,5-d]pyrimidin-7-yl)thio)methyl)-4-fluorobenzonitrile] stands 200 to 1000 nM; under `N#Cc1ccc(C2CC2)c(CSc2nc(N)nc3[nH]nnc23)c1` [Example 161, 3-(((5-amino-3H-[1,2,3]triazolo[4,5-d]pyrimidin-7-yl)thio)methyl)-4-cyclopropylbenzonitrile], 200 to 1000 nM; under `Cc1cc(CSc2cc(N)nc3[nH]nnc23)n(C)n1` [Example 58, 7-(((1,3-dimethyl-1H-pyrazol-5-yl)methyl)thio)-3H-[1,2,3]triazolo[4,5-b] pyridin-5-amine], 200 to 1000 nM. For the compound `Nc1cc(SCc2cccc3c2OC(F)(F)O3)c2nn[nH]c2n1` [Example 105, 7-(((2,2-difluorobenzo[d] [1,3]dioxol-4-yl)methyl)thio)-3H-[1,2,3]triazolo[4,5-b]pyridin-5-amine], the concentration for half-maximal inhibition (IC50) was in the range of 60 to 200 nM. `COC(=O)C(Sc1cc(N)nc2[nH]nnc12)c1ccccc1Cl` (stereo not drawn) [Example 50, methyl 2-((5-amino-3H-[1,2,3]triazolo[4,5-b]pyridin-7-yl)thio)-2-(2-chlorophenyl)acetate]: the half-inhibitory concentration (IC50) fell in the range of 60 to 200 nM. In the case of `Nc1nc(SCc2ccccc2)c2nn[nH]c2n1` [Example 155, 7-(benzylthio)-3H-[1,2,3] triazolo[4,5-d]pyrimidin-5-amine], the half-inhibitory concentration (IC50) is 60 to 200 nM.

Consider `N#Cc1ccc(CSc2cc(N)nc3[nH]nnc23)c(F)c1` [Example 47, 4-(((5-amino-3H-[1,2,3]triazolo[4,5-b]pyridin-7-yl)thio)methyl)-3-fluorobenzonitrile], for which the IC50 was not above 60 nM. The same measure, in the same setting: under `CN(C)Cc1ccccc1CSc1cc(N)nc2[nH]nnc12` [Example 96, 7-((2-((dimethylamino)methyl)benzyl)thio)-3H-[1,2,3]triazolo[4,5-b]pyridin-5-amine] stands 60 to 200 nM; under `Nc1cc(SCc2cc(OC(F)(F)F)ccc2F)c2nn[nH]c2n1` [Example 49, 7-((2-fluoro-5-(trifluoromethoxy)benzyl)thio)-3H-[1,2,3]triazolo[4,5-b]pyridin-5-amine], 60 to 200 nM; under `Nc1cc(SCc2cccc(F)c2)c2nn[nH]c2n1` [Example 6, 7-((3-fluorobenzyl)thio)-3H-[1,2,3]triazolo [4,5-b]pyridin-5-amine], not above 60 nM. With `Cn1nc(-c2ccccc2)c(F)c1CSc1cc(N)nc2[nH]nnc12` [Example 17, 7-(((4-Fluoro-1-methyl-3-phenyl-1H-pyrazol-5-yl)methyl)thio)-3H-[1,2,3]triazolo[4,5-b]pyridin-5-amine], the concentration for half-maximal inhibition (IC50) is not above 60 nM.

In general, IC50 refers to the point on the concentration scale where inhibition reaches its midpoint.

Values taken from patent publication US10981879B2, “Thioether triazolopyridine and triazolopyrimidine inhibitors of myeloperoxidase” (BRISTOL-MYERS SQUIBB COMPANY, priority 2014, dated 2021).
